From US20210369677A1, “SMALL MOLECULE ACTIVATORS OF POLYCYSTIN-2 (PKD2) AND USES THEREOF” (Northwestern University, priority 2020, published 2021)

Molecular target: T1, polycystin-2 (Homo sapiens, UniProt Q13563, C437S/C632S)
T1 construct: expressed in transfected cells
T1 sequence (Q13563 1-968 C437S/C632S): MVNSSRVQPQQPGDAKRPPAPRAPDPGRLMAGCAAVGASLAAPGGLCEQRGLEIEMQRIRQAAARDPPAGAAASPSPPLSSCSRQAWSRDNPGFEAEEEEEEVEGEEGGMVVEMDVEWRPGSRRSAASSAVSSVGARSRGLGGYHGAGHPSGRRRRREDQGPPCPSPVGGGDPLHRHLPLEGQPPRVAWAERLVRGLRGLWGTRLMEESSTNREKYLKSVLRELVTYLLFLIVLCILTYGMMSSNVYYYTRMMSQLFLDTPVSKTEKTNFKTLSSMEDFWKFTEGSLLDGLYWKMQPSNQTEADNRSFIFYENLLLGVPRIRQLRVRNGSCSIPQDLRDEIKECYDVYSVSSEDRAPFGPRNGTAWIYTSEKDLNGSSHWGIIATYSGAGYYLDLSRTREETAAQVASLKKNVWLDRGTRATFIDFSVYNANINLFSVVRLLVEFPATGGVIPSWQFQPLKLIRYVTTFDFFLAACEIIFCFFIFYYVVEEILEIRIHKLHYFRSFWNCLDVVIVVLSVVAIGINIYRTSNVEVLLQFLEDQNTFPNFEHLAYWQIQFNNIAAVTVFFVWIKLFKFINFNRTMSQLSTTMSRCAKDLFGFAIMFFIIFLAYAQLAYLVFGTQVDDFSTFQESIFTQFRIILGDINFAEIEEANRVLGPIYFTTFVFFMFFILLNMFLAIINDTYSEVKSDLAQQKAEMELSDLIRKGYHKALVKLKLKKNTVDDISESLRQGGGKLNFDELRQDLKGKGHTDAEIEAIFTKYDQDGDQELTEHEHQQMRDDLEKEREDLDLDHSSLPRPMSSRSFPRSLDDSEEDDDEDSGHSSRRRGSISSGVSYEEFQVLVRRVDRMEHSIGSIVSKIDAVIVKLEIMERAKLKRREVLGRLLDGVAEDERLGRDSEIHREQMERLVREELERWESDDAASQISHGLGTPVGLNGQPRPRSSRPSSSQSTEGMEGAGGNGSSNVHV
Format: cell-based
Settings: C437S:C632S double mutant
Source text: Generation of HEK PKD2^Null cells line and the stable expression PKD2 variants. To generate the HEK PKD2^Null cell lines, we used a CRISPR/Cas9 gene editing kit available from Addgene (kit 1000000055). HEK 293 cells were electro-transfected with sgRNAs (caccg[…] and aaac[…]c) with the All-in-one Cas9 plasmid. […] Cells generated from single cell clones were selected after 4 weeks of expansion in a 96-wells plate. […] To generate the WT and variant PKD2 GFP or mCherry C-terminally tagged variant cell lines, the hPKD gene was subcloned into lentiviral pLVX-mcherry-N1 (Clontech) or pLVX-GFP-N1 (Clontech) vector using the Gibson assembly method. A linker encoding for six glycine residues was added between the PKD2 gene and the C-terminal tags, and missense variants were generated using standard, site-directed mutagenesis. The third-generation lentiviral packaging plasmids used for stable expression contained: pMDLg/pRRE (Addgene), […] pRSV-Rev (Addgene), and envelope expressing plasmid pMD2.G (Addgene). LentiX-293T cells (Takara) were transfected with polyethylineimine (Polysciences) at a 4:1:1:1 ratio of the transgene and viral packaging constructs. Supernatants were collected 48 and 72 hours post transfection and filtered through a 0.45 μm syringe filter. Lentiviral supernatant was concentrated 100 times using 1 volume of PEG-it (System Biosciences) virus precipitation solution and 4 volume of lentivirus-containing supernatant. The PEG-it and supernatant mixture were kept at 4 degrees for 24 hours and centrifuged at 1500 rpm for 30 minutes. The pellet containing lentivirus was resuspended with 1/100th volume of PBS of the original supernatant volume. HEK cells were infected with the lentivirus supernatant; PKD2-GFP or PKD2-mCherry expression was selected using culture media containing puromycin (2 μg/ml) for 30 to 90 days. Cells were then fluorescence-activated cell sorted (BD FacsMelody) at 5000 to 10,000 counts per minute to enrich for the transgene expression. Stable cell lines were cultured in Dulbecco's modified essential medium (DMEM) supplemented with 10% fetal bovine serum (FBS) and 100 units/ml penicillin, 100 units/ml streptomycin and 1 μg/ml puromycin selection antibiotic.
Electrophysiology. Ciliary ion currents were recorded using borosilicate glass electrodes polished to resistances of 14-22 MΩ using the cilium patch method previously described^32. Whole cell electrodes used to measure poly cystin-2L1 currents were fire polished to 1.5-4 MΩ resistances. Unless otherwise stated, whole cilia ionic currents were recorded in symmetrical [Na^+]. The pipette standard internal solution contained (in mM): 90 NaMES, 10 NaCl, 10 HEPES, 10 Na4-BAPTA (Glycine, N, N′-[1,2-ethanediylbis(oxy-2,1-phenylene)]bis[N-(carboxymethyl)]-,tetrasodium); pH was adjusted to 7.3 using NaOH. Standard bath solution contained 140 NaCl, 10 HEPES, 1.8 CaCl2); pH 7.4. All solutions were osmotically balanced to 295 (±6) mOsm with mannitol. Extracellular solutions containing TCEP and GSH were used within six hours of formulation. Data were collected using an Axopatch 200B patch clamp amplifier, Digidata 1440A, and pClamp 10 software. Whole-cilium and excised patch currents were digitized at 25 kHz and low-pass filtered at 10 kHz. In the whole cilium configuration, the holding potential was −60 mV and then depolarized using a 400 ms voltage ramp from −100 mV to 100 mV. The whole cell recordings of polycystin-2L1 currents were either activated by the same ramp protocol or by 100 ms depolarizations to 100 mV from a −100 mV holding potential.

N[C@@H](CCC(=O)N[C@@H](CS)C(=O)NCC(=O)O)C(=O)O [GSH, reduced glutathione]
Effect on C437S:C632S double mutant channel cilia current: retained its sensitivity

O=C(O)CCP(CCC(=O)O)CCC(=O)O [TCEP, tris-2-carboxyethyl phosphine]
Effect on C437S:C632S double mutant channel cilia current: retained its sensitivity
